Measured values from ChEMBL document CHEMBL6092148, “Design, preparation and biological evaluation of new Rociletinib-inspired analogs as irreversible EGFR inhibitors to treat non-small-cell-lung cancer” (Bioorg Med Chem, 2024).

How the values were obtained:
[1] = molecular target: T1, Epidermal growth factor receptor (Homo sapiens, UniProt P00533)
Description: Inhibition of wild type EGFR (unknown origin) using poly (Glu:Tyr) as substrate incubated for 1 hr in presence of ATP by ADP-glo kinase assay

[2] = Aqueous solubility of the compound in PBS buffer at PH 7.4 measured after 6 hrs by HPLC-UV analysis; type: physicochemical; conditions: pH 7.4, 6 h
[3] = molecular target: Epidermal growth factor receptor (Homo sapiens, UniProt P00533, L858R/T790M)
Chain of Epidermal growth factor receptor (Homo sapiens, UniProt P00533, L858R/T790M) (P00533 25-1210 T790M/L858R limits assumed): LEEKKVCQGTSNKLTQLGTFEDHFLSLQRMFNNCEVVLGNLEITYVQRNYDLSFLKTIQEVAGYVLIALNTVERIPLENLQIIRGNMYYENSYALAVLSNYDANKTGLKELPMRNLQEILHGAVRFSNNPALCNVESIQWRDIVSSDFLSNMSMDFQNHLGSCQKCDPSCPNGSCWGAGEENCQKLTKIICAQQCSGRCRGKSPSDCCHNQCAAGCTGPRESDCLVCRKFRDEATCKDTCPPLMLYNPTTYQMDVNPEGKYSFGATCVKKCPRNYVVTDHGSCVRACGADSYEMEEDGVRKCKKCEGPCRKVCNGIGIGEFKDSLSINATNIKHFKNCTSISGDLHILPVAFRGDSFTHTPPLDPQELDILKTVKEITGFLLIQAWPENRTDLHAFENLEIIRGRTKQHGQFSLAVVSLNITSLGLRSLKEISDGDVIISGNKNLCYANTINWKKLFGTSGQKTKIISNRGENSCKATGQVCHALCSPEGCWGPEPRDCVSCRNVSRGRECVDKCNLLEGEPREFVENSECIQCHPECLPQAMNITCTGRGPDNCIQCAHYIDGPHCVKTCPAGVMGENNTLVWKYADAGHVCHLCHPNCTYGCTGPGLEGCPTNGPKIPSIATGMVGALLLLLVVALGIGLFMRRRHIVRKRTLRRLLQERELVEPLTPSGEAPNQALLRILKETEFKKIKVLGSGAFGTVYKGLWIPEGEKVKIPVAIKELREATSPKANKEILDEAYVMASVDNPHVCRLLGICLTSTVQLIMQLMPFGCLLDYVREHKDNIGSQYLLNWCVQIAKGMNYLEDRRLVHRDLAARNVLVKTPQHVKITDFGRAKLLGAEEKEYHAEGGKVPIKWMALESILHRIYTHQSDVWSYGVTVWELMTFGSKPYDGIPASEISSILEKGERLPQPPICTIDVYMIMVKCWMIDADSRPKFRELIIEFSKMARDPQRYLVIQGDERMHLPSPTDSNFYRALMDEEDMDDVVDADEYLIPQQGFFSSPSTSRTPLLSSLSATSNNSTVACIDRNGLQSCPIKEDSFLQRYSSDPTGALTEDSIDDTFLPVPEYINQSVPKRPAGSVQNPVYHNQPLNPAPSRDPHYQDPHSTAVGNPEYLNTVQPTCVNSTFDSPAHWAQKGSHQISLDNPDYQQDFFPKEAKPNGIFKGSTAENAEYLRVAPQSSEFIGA

in vitro = conditions: human, HepG2 cells and A549 cells
Description: Selectivity index, ratio of IC50 for human HepG2 cells to IC50 for human A549 cells

A549 = assay: cells; conditions: Homo sapiens, A549, 72 h
[4] = molecular target: T2, Tyrosine-protein kinase JAK3 (Homo sapiens, UniProt P52333)
T2 sequence (P52333 whole entry): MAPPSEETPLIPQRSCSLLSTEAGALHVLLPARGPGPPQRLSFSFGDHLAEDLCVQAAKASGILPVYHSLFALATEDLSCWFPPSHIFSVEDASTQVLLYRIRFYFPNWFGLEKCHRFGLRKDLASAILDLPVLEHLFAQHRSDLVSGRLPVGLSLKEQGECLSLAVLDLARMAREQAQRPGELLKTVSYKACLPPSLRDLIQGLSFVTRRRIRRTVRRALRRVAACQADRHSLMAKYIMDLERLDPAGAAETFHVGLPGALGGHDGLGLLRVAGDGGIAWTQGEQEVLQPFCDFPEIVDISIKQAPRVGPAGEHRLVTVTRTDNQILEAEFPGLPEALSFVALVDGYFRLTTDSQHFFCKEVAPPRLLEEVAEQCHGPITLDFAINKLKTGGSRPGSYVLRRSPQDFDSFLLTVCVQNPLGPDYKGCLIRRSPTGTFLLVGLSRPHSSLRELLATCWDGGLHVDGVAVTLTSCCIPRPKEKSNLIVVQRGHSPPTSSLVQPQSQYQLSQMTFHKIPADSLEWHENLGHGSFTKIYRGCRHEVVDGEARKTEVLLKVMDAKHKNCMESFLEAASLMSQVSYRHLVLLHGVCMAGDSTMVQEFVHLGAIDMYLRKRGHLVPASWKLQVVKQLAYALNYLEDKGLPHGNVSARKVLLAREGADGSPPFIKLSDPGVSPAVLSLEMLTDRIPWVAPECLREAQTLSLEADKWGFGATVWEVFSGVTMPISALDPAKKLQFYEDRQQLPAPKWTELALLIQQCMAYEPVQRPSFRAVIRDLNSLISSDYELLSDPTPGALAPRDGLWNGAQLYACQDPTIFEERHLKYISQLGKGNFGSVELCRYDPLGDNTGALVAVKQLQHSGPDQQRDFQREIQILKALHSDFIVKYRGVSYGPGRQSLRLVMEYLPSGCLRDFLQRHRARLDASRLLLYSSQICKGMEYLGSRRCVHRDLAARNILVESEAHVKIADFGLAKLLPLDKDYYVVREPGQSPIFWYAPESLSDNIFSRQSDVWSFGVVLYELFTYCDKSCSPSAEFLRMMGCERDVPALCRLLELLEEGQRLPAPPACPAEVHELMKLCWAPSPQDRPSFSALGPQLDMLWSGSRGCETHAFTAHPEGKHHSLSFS
Description: Inhibition of JAK3 (unknown origin) using poly (Glu:Tyr) as substrate incubated for 1 hr in presence of ATP by ADP-glo kinase assay

A-431 = assay: cells; conditions: Homo sapiens, A-431, 72 h
HepG2 = assay: cells; conditions: Homo sapiens, HepG2, 72 h
[5] = molecular target: T1, Epidermal growth factor receptor; remark: listed apart in the source
Description: Irreversible inhibition of wild type EGFR (unknown origin) assessed as inactivation constant

physchem = conditions: 1-octanol/PBS, pH 7.4
[6] = molecular target: T1, Epidermal growth factor receptor; assay: Binding affinity to wild type EGFR (unknown origin) assessed as inhibition constant
[7] = molecular target: T1, Epidermal growth factor receptor; assay: Potency index, ratio of rociletinib IC50 to test compound IC50 for inhibition of wild type EGFR (unknown origin)

T1 sequence (P00533 whole entry): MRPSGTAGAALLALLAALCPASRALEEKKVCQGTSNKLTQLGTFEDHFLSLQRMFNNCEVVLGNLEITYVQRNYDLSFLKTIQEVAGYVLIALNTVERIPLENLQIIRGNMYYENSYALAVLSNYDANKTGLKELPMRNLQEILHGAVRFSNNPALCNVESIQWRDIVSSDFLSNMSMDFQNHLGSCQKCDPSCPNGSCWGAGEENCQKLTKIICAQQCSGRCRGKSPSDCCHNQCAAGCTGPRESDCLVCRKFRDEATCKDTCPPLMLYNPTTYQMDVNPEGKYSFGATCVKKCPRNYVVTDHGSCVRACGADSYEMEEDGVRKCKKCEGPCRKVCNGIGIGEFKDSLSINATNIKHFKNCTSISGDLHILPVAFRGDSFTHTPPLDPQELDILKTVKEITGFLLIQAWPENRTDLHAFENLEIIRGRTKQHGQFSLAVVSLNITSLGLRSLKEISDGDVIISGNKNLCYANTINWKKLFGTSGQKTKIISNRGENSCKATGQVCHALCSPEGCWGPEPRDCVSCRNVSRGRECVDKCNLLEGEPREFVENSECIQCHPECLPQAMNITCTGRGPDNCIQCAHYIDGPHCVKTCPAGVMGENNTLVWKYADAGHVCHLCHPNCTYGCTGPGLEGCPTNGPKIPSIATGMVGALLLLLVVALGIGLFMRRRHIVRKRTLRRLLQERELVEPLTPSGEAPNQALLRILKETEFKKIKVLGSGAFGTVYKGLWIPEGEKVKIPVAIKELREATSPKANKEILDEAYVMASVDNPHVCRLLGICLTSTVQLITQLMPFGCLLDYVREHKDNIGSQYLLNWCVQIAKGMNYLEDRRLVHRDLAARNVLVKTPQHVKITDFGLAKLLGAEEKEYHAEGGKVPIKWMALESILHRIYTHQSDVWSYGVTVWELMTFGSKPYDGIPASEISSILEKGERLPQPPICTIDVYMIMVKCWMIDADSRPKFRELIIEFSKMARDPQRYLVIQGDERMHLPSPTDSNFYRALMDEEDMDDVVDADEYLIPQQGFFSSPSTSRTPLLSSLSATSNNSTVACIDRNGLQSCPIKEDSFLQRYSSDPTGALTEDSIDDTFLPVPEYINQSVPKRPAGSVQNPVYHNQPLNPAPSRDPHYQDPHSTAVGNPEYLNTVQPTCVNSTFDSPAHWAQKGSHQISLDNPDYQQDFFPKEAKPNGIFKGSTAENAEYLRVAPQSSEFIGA

Row | SMILES | IC50 [1] [µM] | solubility [2] [µg] | IC50 [3] [µM] | selectivity ratio (in vitro) | IC50 (A549) [µM] | IC50 (A-431) [µM] | IC50 (HepG2) [µM] | logD at 6 h (physchem) | also measured
1 | C=CC(=O)Nc1cccc(Nc2nc(Nc3ccc4c(C)n(C)nc4c3)ncc2Cl)c1 | 0.0978 |  |  |  |  |  |  |  | 
2 | C=CC(=O)Nc1cccc(Nc2nc(Nc3ccc(N4CCN(C(C)=O)CC4)cc3OC)ncc2Cl)c1 | 0.0876 |  |  |  |  |  |  |  | 
3 | C=CC(=O)Nc1cccc(Nc2nc(Nc3ccc4[nH]c(=O)oc4c3)ncc2Cl)c1 | 0.0635 |  |  |  |  |  |  |  | 
4 | CCC(=O)Nc1cccc(Nc2nc(Nc3ccc4c(C)n(C)nc4c3)ncc2Cl)c1 | 0.0592 |  |  |  |  |  |  |  | 
5 | C=CC(=O)Nc1cccc(Nc2nc(Nc3cnn(C)c3)ncc2Cl)c1 | 0.174 | 109 | 0.0207 | 4.11 | 0.79 | 6.39 | 3.25 | 2.86 | IC50 [4]: 0.0695 µM; Kinact [5]: 6.16 10^-1/s; Ki [6]: 3810 µM
6 | CCC(=O)Nc1cccc(Nc2nc(Nc3cnn(C)c3)ncc2Cl)c1 | 0.035 | 80.1 | 0.0189 | 10.2 | 2.77 | 11.2 | 28.3 | 2.67 | IC50 [4]: 0.0317 µM
7 | O=C(CCl)Nc1cccc(Nc2nc(Nc3ccc4[nH]c(=O)oc4c3)ncc2Cl)c1 | 0.0431 | 15.4 | 0.0632 | 0.96 | 7.29 | 7.49 | 7.06 | 3.51 | 
8 | Cn1cc(Nc2ncc(Cl)c(Nc3cccc(NC(=O)/C=C/c4ccccc4)c3)n2)cn1 | 0.0448 | 1.35 | 0.0228 | 2.46 | 1.48 | 10.5 | 3.65 | 4.18 | IC50 [4]: 0.008 µM
9 | C=CC(=O)Nc1cc(Nc2nccc(-c3cn(C)c4ccccc34)n2)c(OC)cc1N(C)CCN(C)C [OSIMERTINIB] |  | 30.1 |  |  | 10.2 | […] | 3.65 | 3.43 | IC50 [4]: 0.0353 µM
10 | COc1cc(N2CCN(C(C)=O)CC2)ccc1Nc1ncc(Cl)c(Nc2cccc(NC(=O)CCl)c2)n1 | 0.0226 | 8.65 | 0.0568 | 2.18 | 5.78 | 7.05 | 12.6 | 3.67 | Ratio IC50 [7]: 28
11 | Cc1c2ccc(Nc3ncc(Cl)c(Nc4cccc(NC(=O)CCl)c4)n3)cc2nn1C | 0.0789 |  |  |  |  |  |  |  | 
12 | C=CC(=O)Nc1cccc(Nc2nc(Nc3ccc(N4CCN(C(C)=O)CC4)cc3OC)ncc2C(F)(F)F)c1 [ROCILETINIB] |  | 221 |  |  | 0.2 | 0.32 | 7.39 | 3.18 | IC50 [4]: 0.0043 µM
13 | Cn1cc(Nc2ncc(Cl)c(Nc3cccc(NC(=O)CCl)c3)n2)cn1 | 0.0416 | 183 | 0.0478 | 1.54 | 2.78 | 3.7 | 4.3 | 2.6 | IC50 [4]: 0.911 µM
14 | CC(=O)N1CCN(c2ccc(Nc3ncc(Cl)c(Nc4cccc(NC(=O)CCl)c4)n3)cc2)CC1 | 0.114 |  |  |  |  |  |  |  | 
15 | C=CC(=O)Nc1cccc(Nc2nc(Nc3ccc(N4CCN(C(C)=O)CC4)cc3)ncc2Cl)c1 | 0.0436 | 13.4 | 0.0697 | 4.65 | 0.23 | 3.47 | 1.07 | 3.18 | 
16 | CC(=O)N1CCN(c2ccc(Nc3ncc(Cl)c(Nc4cccc(NC(=O)/C=C/c5ccccc5)c4)n3)cc2)CC1 | 0.0878 |  |  |  |  |  |  |  | 
17 | CCC(=O)Nc1cccc(Nc2nc(Nc3ccc(N4CCN(C(C)=O)CC4)cc3)ncc2Cl)c1 | 0.0659 |  |  |  |  |  |  |  | 
18 | CCC(=O)Nc1cccc(Nc2nc(Nc3ccc4[nH]c(=O)oc4c3)ncc2Cl)c1 | 0.116 |  |  |  |  |  |  |  | 
19 | COc1cc(N2CCN(C(C)=O)CC2)ccc1Nc1ncc(Cl)c(Nc2cccc(NC(=O)/C=C/c3ccccc3)c2)n1 | 0.058 |  |  |  |  |  |  |  | 
20 | CCC(=O)Nc1cccc(Nc2nc(Nc3ccc(N4CCN(C(C)=O)CC4)cc3OC)ncc2Cl)c1 | 0.0629 |  |  |  |  |  |  |  | 
21 | Cc1c2ccc(Nc3ncc(Cl)c(Nc4cccc(NC(=O)/C=C/c5ccccc5)c4)n3)cc2nn1C | 0.0656 |  |  |  |  |  |  |  | 
22 | O=C(/C=C/c1ccccc1)Nc1cccc(Nc2nc(Nc3ccc4[nH]c(=O)oc4c3)ncc2Cl)c1 | 0.0767 |  |  |  |  |  |  |  | 
